Measurements as given in BindingDB's records for doi:10.1021/jm0502891 (Inotek Pharmaceuticals, 2005).

Target: Poly [ADP-ribose] polymerase 1 (Homo sapiens, UniProt P09874)
Assay: PARP ELISA Assay
Conditions: pH 8; 22 °C
Experimental: The assay was performed in 96-well ELISA plates according to instructions provided with a commercially available PARP inhibition assay kit (Trevigen, Gaithersburg, MD). After incubation, incorporated biotin was detected by peroxidase-conjugated streptavidin and TACS Sapphire substrate.

Chain of Poly [ADP-ribose] polymerase 1 (P09874 whole entry): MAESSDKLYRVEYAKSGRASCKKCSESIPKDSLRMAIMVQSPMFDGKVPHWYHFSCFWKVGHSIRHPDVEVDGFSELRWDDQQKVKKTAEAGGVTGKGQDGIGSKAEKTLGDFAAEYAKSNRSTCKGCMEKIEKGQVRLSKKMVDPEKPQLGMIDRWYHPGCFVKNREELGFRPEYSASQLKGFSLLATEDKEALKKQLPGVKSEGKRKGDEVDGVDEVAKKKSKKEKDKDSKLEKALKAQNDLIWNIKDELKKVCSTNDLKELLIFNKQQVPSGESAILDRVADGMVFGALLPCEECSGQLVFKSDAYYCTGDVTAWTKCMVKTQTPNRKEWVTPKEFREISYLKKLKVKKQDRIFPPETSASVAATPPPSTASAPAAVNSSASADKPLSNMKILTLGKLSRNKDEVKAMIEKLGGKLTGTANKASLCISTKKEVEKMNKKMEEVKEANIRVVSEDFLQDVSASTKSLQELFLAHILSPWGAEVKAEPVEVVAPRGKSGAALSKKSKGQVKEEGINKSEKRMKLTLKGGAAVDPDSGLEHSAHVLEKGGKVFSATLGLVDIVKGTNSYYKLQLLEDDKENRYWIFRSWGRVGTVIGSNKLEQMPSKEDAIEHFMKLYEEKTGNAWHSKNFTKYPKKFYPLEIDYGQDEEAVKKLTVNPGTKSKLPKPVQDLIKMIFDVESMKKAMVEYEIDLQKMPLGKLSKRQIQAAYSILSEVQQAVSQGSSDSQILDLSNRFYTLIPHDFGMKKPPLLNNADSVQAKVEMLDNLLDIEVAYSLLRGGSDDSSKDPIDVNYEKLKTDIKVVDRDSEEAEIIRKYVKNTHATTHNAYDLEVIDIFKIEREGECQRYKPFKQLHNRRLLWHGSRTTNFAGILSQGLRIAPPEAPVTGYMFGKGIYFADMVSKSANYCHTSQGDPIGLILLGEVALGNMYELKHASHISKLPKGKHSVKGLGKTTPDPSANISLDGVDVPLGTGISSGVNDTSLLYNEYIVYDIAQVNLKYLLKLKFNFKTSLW

| IC50 | Compound |
| --- | --- |
| 400 nM | O=C(CCCN1CCOCC1)Nc1ccc2c(c1)-c1[nH]c(=O)c3ccccc3c1C2 [4-(morpholin-4-yl)-N-{8-oxo-9-azatetracyclo[8.7.0.0^{2,7}.0^{11,16}]heptadeca-1(10),2(7),3,5,11(16),12,14-heptaen-13-yl}butanamide] |
| 800 nM | C[N+]1(CCCNS(=O)(=O)c2ccc3c(c2)Cc2c-3[nH]c(=O)c3ccccc23)CCOCC1 [4-methyl-4-[3-({8-oxo-9-azatetracyclo[8.7.0.0^{2,7}.0^{11,16}]heptadeca-1(10),2(7),3,5,11(16),12,14-heptaene-14-}sulfonamido)propyl]morpholin-4-ium iodide] |
| 450 nM | O=c1[nH]c2c(c3ccccc13)Cc1cc(S(=O)(=O)NN3CCOCC3)c(F)cc1-2 [13-fluoro-N-(morpholin-4-yl)-8-oxo-9-azatetracyclo[8.7.0.0^{2,7}.0^{11,16}]heptadeca-1(10),2(7),3,5,11(16),12,14-heptaene-14-sulfonamide] |
